Data from patent US20260223593A1, “Organic Compound, Light-Emitting Device, Display Apparatus, And Electronic Appliance” (Semiconductor Energy Laboratory Co., Ltd., priority 2023, published 2026).
Converted amounts (≈) assume the structure as drawn.

Experiment: Solubility test of Ph3TP-hpp by LC/MS analysis (water solubility)
Type: physicochemical
Description: In the LC/MS analysis, LC (liquid chromatography) separation was carried out with Acquity UPLC (registered trademark) produced by Waters Corporation, and MS analysis (mass spectrometry) was carried out with Xevo G2 Tof MS produced by Waters Corporation. Acquity UPLC BEH C8 (2.1×100 mm, 1.7 μm) was used as a column for the LC separation. Acetonitrile was used for Mobile Phase A and a 0.1% aqueous solution of formic acid was used for Mobile Phase B. The injection amount of the sample was 5.0 μL. Note that in the analysis, the wavelength of a photodiode array detector was set to 246 nm±1 nm.
In a 5-mL sample bottle, 1 mg of Ph3TP-hpp was put and 2 mL of toluene was added thereto, and then this mixture was irradiated with ultrasonic waves for five minutes. After it was confirmed that the solid was completely dissolved, this solution was diluted by 2.5 times with acetonitrile, whereby the concentration of the solution was adjusted to 200 mg/L. This solution was diluted with acetonitrile, whereby solutions with concentrations of 20 mg/L, 10 mg/L, and 4 mg/L were prepared. The prepared solutions were subjected to LC/MS analysis, and the peak area values derived from Ph3TP-hpp, which were obtained at the respective solution concentrations, were used to form calibration curves.
Next, the water solubility of Ph3TP-hpp was measured.
In a 5-mL sample bottle, 1 mg of Ph3TP-hpp was put and 1 mL of water was added thereto, and then this mixture was irradiated with ultrasonic waves for five minutes. This mixture was filtered through a membrane filter to remove the solid, and the obtained filtrate was diluted by five times with acetonitrile. The obtained solution was subjected to LC/MS analysis.

solubility of Ph3TP-hpp dissolved in 1 mL of water (1 mg in 1 mL of water, ultrasonic waves five minutes, membrane filtered, filtrate by LC/MS against calibration curve): 0.031 mg
solubility at 5 min (thermodynamic from solid, water, from 0.031 mg in 1 mL, read-out: weight fraction of the water solubility): 31 µg/mL (≈ 52 µM)
water solubility (in words) (water, LC/MS solubility test): low water solubility
SMILES: c1ccc(-c2cc(-c3cccc(N4CCCN5CCCN=C54)c3)c(-c3ccccc3)c(-c3ccccc3)c2-c2ccccc2)cc1 [Ph3TP-hpp, 1-(3′,4′,5′-triphenyl-1,1′:2′,1″-terphenyl-3-yl)-1,3,4,6,7,8-hexahydro-2H-pyrimide[1,2-a]pyrimidine]
